Patent US12324802B2, “Modulators of cystic fibrosis transmembrane conductance regulator” (Vertex Pharmaceuticals Incorporated, priority 2020, dated 2025)
Where two headings read alike, the source gives them in different places.

Experiments:
[1] = from CC(C)(C)OC(=O)NCC(C)(C)OCCC[C@@](OCc1ccccc1)(c1nnc(-c2nc(Cl)c(C(F)(F)F)cc2[N+](=O)[O-])o1)C(F)(F)F; snar bond; 14-membered ring; TFA; then DIEA; DCM; 0.96 mM; 25.0 °C; 2 steps
[2] = not given; remark: listed apart in the source

## CC1(C)CNc2nc(c([N+](=O)[O-])cc2C(F)(F)F)C2=NN=C(O2)[C@@](OCc2ccccc2)(C(F)(F)F)CCCO1
[1]
  ring closure, crude yield: 99%

## CN1CCN(C)c2nc(c(NC(=O)OC(C)(C)C)cc2C(F)(F)F)C2=NN=C(O2)C(OCc2ccccc2)(C(F)(F)F)CCC1=O (stereo not drawn)
From CNCCN(C)c1nc(-c2nnc(C(CCC(=O)O)(OCc3ccccc3)C(F)(F)F)o2)c(NC(=O)OC(C)(C)C)cc1C(F)(F)F, amide bond, 14-membered ring, HATU/DIEA, DMF, 9.16 mM, 25.0 °C, 3.0 h
  ring closure, yield after HPLC: 70%

## 6-benzyloxy-12,12-dimethyl-17-nitro-6,15-bis(trifluoromethyl)-19-oxa-3,4,13,18-tetrazatricyclo[12.3.1.12,5]nonadeca-1(18),2,4,8,14,16-hexaen-7-ol (E/Z olefin mixture, cis diol)
Rcm bond, 14-membered ring, Zhan catalyst-1B, 70.0 °C
  ring closure, yield after HPLC: 49%

## CC(=O)OC1C=CC[C@](OCc2ccccc2)(C(F)(F)F)C2=NN=C(O2)c2nc(c(C(F)(F)F)cc2[N+](=O)[O-])NC(C)(C)C1 (mixture of isomers)
[2]; from C=CC[C@@](OCc1ccccc1)(c1nnc(-c2nc(NC(C)(C)CC(C=C)OC(C)=O)c(C(F)(F)F)cc2[N+](=O)[O-])o1)C(F)(F)F, rcm bond, 14-membered ring, Zhan catalyst-1B, toluene, 10.6 mM, 110.0 °C, 19.0 h
  ring closure, isolated yield: 20%

## CC(C)(C)OC(=O)Nc1cc(C(F)(F)F)c2nc1-c1nnc(o1)C(OCc1ccccc1)(C(F)(F)F)CC=CC[C@@H]1CCCN21 (mixture of isomers)
[2]; from C=CC[C@@H]1CCCN1c1nc(-c2nnc(C(CC=C)(OCc3ccccc3)C(F)(F)F)o2)c(NC(=O)OC(C)(C)C)cc1C(F)(F)F, rcm bond, 13-membered ring, Zhan-1B (two charges), DCE, 6.47 mM, 80.0 °C, 36.0 h
  ring closure, isolated yield: 6.5%

## CC(C)(C)OC(=O)Nc1cc(C(F)(F)F)c2nc1-c1nnc(o1)C(OCc1ccccc1)(C(F)(F)F)CCC=CC1CCCN21 (mixture of isomers)
From C=CCCC(OCc1ccccc1)(c1nnc(-c2nc(N3CCCC3C=C)c(C(F)(F)F)cc2NC(=O)OC(C)(C)C)o1)C(F)(F)F, rcm bond, 13-membered ring, Zhan-1B (two charges), DCE, 6.25 mM, 85.0 °C, 23.0 h
  ring closure, yield after HPLC: 3%

## CC(C)(C)OC(=O)Nc1cc(C(F)(F)F)c2nc1-c1nnc(o1)[C@@](O)(C(F)(F)F)c1cc(ccc1F)C=CC[C@@H]1CCCN21 (mixture of isomers)
[2]; from C=CC[C@@H]1CCCN1c1nc(-c2nnc([C@](O)(c3cc(I)ccc3F)C(F)(F)F)o2)c(NC(=O)OC(C)(C)C)cc1C(F)(F)F, cc_pd bond, 15-membered ring, Pd(OAc)2/P(o-tol)3/Et3N, MeCN, 9.5 mM, 80.0 °C, 22.0 h
  ring closure, isolated yield: 58%

## CC(C)(C)OC(=O)Nc1cc(C(F)(F)F)c2nc1-c1nnc(o1)[C@](O)(C(F)(F)F)c1cc(ccc1F)C=CC[C@@H]1CCCN21 (mixture of isomers)
[2]; from C=CC[C@@H]1CCCN1c1nc(-c2nnc([C@@](O)(c3cc(I)ccc3F)C(F)(F)F)o2)c(NC(=O)OC(C)(C)C)cc1C(F)(F)F, cc_pd bond, 15-membered ring, Pd(OAc)2/P(o-tol)3/Et3N, MeCN, 9.5 mM, 80.0 °C, 22.0 h
  ring closure, isolated yield: 56%

## CC1(C)CC=CCC[C@](OCc2ccccc2)(C(F)(F)F)C2=NN=C(O2)c2nc(c(C(F)(F)F)cc2[N+](=O)[O-])N1 (mixture of isomers)
[2]; from [2H]C([2H])([2H])C(CC=C)(Nc1nc(-c2nnc([C@@](CCC=C)(OCc3ccccc3)C(F)(F)F)o2)c([N+](=O)[O-])cc1C(F)(F)F)C([2H])([2H])[2H], rcm bond, 14-membered ring, Zhan catalyst-1B, DCE, 11.0 mM, 75.0 °C, 3.0 h
  ring closure, isolated yield: 37.8%

## CC1(C)CCC=CC[C@](OCc2ccccc2)(C(F)(F)F)C2=NN=C(O2)c2nc(c(C(F)F)cc2[N+](=O)[O-])N1 (mixture of isomers)
From C=CCCC(C)(C)Nc1nc(-c2nnc([C@@](CC=C)(OCc3ccccc3)C(F)(F)F)o2)c([N+](=O)[O-])cc1C(F)F, rcm bond, 14-membered ring, Zhan catalyst-1B, DCE, 5.67 mM, 65.0 °C, 4.5 h
  ring closure, yield after HPLC: 20%

## O=[N+]([O-])c1cc(C(F)(F)F)c2nc1-c1nnc(o1)-c1c(cccc1OCc1ccccc1)CC=CC[C@@H]1CCCN21 (mixture of isomers)
[2]; from C=CCc1cccc(OCc2ccccc2)c1-c1nnc(-c2nc(N3CCC[C@H]3CC=C)c(C(F)(F)F)cc2[N+](=O)[O-])o1, rcm bond, 14-membered ring, Zhan-1B, DCE, 7.24 mM, 70.0 °C, 5.0 h
  ring closure, isolated yield: 26%

## (6R)-6-benzyloxy-17-(tert-butoxycarbonylamino)-6,15-bis(trifluoromethyl)-19-oxa-3,4,13,18-tetrazatricyclo[12.3.1.12,5]nonadeca-1(17),2,4,9,14(18),15-hexaene-12-carboxylic acid (E/Z mixture)
[2]; rcm bond, 14-membered ring, Zhan catalyst-1B, then LiOH, DCE, 0.99 mM, 75.0 °C, 2 steps
  ring closure, isolated yield: 21%
